Experimental data taken from US8835422B2, “Substituted imidazoheterocycle derivatives” (Cara Therapeutics, Inc., priority 2008, dated 2014).

Tests used:
[1] = system: acetic acid-induced writhing; test: Inhibition of acetic acid-induced writhing in mice; type: in vivo, Male ICR mice; conditions: dose of 10 mg/kg, subcutaneous, 30 min before acetic acid; writhes over 15 min
Text: 12: 525-562; Ramabadran and Bansinath (1986) Pharm. Res. 3: 263-270]. Intraperitoneal administration of dilute acetic acid solution causes a writhing behavior in mice. A writhe is defined as a contraction of the abdominal muscles accompanied by an extension of the forelimbs and elongation of the body. The number of writhes observed in the presence and absence of test compounds is counted to determine the analgesic activity of the compounds.
Male ICR mice, 20-40 grams in weight, were weighed and placed in individual observation chambers (usually a 4000 ml beaker) with a fine layer of rodent bedding at the bottom. To determine the activity and potency of test compounds, different doses of the compound solution or vehicle were injected subcutaneously in the back of the neck 30 minutes prior to administration of acetic acid solution. After administration of the compound or vehicle control, mice were returned to their individual observation chambers awaiting the intraperitoneal administration of acetic acid solution. Thirty minutes later, 10 ml/kg of a 0.6% (v/v) acetic acid solution was then injected into the right lower quadrant of the abdomen. Immediately after the injection, the mouse was returned to its observation chamber and the recording of the number of writhes is begun immediately. The number of writhes was counted over a 15-min period starting from the time of acetic acid injection. Raw data were analyzed using a one-way ANOVA followed by Dunnett's post-tests.
For dose-response analysis, raw data were converted to % maximum possible effect (% MPE) using the formula: % MPE=((Wc−Wv)/(0−Wv))×100, where Wc is the number of writhes in compound-treated mice and Wv is the mean number of writhes in vehicle-treated mice. The dose which elicited 50% attenuation of hypersensitivity (ED50) was determined using linear regression analysis. (Tallarida & Murray, 1987).

[2] = biological target: human CB1 receptor (hCB1) (Homo sapiens, UniProt P21554); test: cAMP assay (LANCE TR-FRET) in CHO-K1 cells stably expressing hCB1; type: cell-based
Experimental: (§1) The ability of compounds to act as agonists or inverse agonists at human CB2 and CB1 receptors (hCB2, hCB1, respectively) and at the rat CB2 receptor (rCB2) was determined by measuring changes in intracellular cAMP levels. Chinese Hamster Ovary (CHO-K1) cell lines stably expressing hCB2 (Genebank: X74328) or hCB1 (Genebank: X54937) were purchased from Euroscreen (Gosselies, Belgium). The rat CB2 receptor was expressed from genomic DNA (provided by M. Abood, California Pacific Medical Center) in CHO-K1 cells from expression plasmid vector, pcDNA3.1.
(§2) Receptor mediated responses were determined by measuring changes in intracellular cAMP using LANCE cAMP detection kit (cat #AD0264, Perkin Elmer, Wellesley, Mass.) based on time-resolved fluorescence resonance energy transfer (TR-FRET).
(§3) On the day of the experiment, cells were spun at low speed for 5 min at room temperature. […] Cell clumps were removed by filtering through cell strainer 40 μm (BD Falcon, Discovery Labware, Bedford, Mass.) and diluted to 2×10^5 cells/mL. Antibody supplied with the LANCE cAMP immunoassay kit was then added according to the manufacturer's instructions. An aliquot of cells was taken for un-induced controls. […] Cells were then incubated for 30 min at room temperature prior to adding to Proxiplates containing test compounds (final DMSO concentration was less than 0.5%) with a Multidrop bulk dispenser, followed by a sixty minute incubation at room temperature. The response was stopped by addition of the detection mix supplied with the LANCE kit. The reagents were allowed to equilibrate for three hours prior to reading on an Envision multi-mode detector (Perkin-Elmer). TR-FRET was measured using a 330-380 nm excitation filter, a 665 nm emission filter, dichroic mirror 380 nm and Z=1 mm. Cyclic AMP concentrations in each well were back-calculated from a cAMP standard curve run concurrently during each assay. Each plate contained 16 wells of forskolin stimulated cells and 16 wells of forskolin plus CP55,940-treated cells. […] Concentrations of cAMP were expressed as a percent of the difference of these two groups of wells.

[3] = biological target: T1, human CB2 receptor (hCB2) (Homo sapiens, UniProt P34972); test: cAMP assay (LANCE TR-FRET) in CHO-K1 cells stably expressing hCB2; type: cell-based
T1 construct: host or cells: CHO-K1
Experimental: as §1, §2, §3

T1 sequence (P34972 whole entry): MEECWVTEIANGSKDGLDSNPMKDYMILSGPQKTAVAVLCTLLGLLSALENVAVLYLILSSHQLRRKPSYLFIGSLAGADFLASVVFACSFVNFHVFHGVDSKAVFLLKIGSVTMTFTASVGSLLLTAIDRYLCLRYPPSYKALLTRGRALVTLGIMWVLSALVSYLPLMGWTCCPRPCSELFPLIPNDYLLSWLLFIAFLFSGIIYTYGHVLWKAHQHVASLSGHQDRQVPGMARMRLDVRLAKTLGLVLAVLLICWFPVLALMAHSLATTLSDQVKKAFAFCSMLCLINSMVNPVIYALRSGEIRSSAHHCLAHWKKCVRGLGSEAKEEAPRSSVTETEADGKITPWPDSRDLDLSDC
human CB1 receptor (hCB1), sequence (P21554 whole entry): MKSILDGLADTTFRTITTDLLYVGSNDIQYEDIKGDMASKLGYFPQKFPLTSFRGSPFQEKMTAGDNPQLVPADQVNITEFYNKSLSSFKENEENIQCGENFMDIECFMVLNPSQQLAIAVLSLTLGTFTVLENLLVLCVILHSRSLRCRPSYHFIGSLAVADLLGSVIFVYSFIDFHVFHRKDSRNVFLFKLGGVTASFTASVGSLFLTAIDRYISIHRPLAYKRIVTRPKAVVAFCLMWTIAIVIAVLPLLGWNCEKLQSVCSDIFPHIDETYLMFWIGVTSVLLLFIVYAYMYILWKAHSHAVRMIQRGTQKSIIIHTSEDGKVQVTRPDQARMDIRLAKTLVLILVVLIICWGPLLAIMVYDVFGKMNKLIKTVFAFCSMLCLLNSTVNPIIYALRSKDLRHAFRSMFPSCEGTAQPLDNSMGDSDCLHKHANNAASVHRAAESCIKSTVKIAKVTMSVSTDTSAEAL

Structure (SMILES): CNC(=O)[C@@H](NC(=O)c1nc(-c2ccc(F)c(F)c2)n2c1CCOCC2)C(C)(C)C [Compound 1-9, (S)-3-(3,4-difluorophenyl)-N-(3,3-dimethyl-1-(methyl-amino)-1-oxobutan-2-yl)-5,6,8,9-tetrahydroimidazo[1,5-d][1,4]oxazepine-1-carboxamide]
- % maximum possible effect (% MPE), writhing [1]: greater than fifty
- EC50 [2]: 10 to 100 nM
- EC50 [3]: 0.1 to 10 nM
